Drawing on paper PMC2650797 (Carcinogenesis, 2009), this text covers IC50 for 2 compounds.

Structures are written as SMILES.

The target in the assay is T1, Cytochrome P450 (CYP) 1A2 (Homo sapiens, UniProt P05177).
T1 sequence (P05177 2-516): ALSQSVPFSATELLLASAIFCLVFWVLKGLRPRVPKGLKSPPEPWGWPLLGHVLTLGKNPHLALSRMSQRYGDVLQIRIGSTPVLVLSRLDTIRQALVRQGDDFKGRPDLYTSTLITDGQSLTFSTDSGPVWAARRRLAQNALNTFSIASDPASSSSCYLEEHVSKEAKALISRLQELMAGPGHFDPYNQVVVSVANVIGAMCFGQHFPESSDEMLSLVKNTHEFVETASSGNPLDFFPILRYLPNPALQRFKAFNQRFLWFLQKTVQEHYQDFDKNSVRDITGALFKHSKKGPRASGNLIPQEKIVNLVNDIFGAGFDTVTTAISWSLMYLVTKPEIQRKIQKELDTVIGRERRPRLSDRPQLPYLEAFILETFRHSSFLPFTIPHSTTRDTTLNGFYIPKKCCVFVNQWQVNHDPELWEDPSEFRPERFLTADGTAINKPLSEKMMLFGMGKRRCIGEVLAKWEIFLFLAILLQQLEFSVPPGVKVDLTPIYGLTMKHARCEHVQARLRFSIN
Description: 7-ethoxyresorufin O-deethylase fluorescence inhibition assay. The assay is classed as biochemical.

Regarding `Cc1c(-c2cnccn2)ssc1=S` [OLT, 4-methyl-5-pyrazinyl-3H-1,2-dithiole-3-thione], the IC50 (as a rule, the point on the concentration scale where inhibition reaches its midpoint) is ~0.2 µM.
To `CC(C)(C)c1cc(=S)ss1` [TBD, 5-tert-butyl-3H-1,2-dithiole-3-thione] belongs ~12.8 µM.
